# From PubChem BioAssay (NCI)
#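 Assay format: 96-well plates, 48-hour exposure. At the GI50, growth is halved. TGI is the concentration that stops growth completely.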
# Columns and labels:
# Test in all cases: DTP human tumour cell line panel, 48 h
# SW-620 colon = test system: SW-620 colon
# HT29 colon = test system: HT29 colon
# SNB-19 CNS = test system: SNB-19 CNS
# NCI-H226 lung = test system: NCI-H226 lung
# EKVX NSCLC = test system: EKVX NSCLC
# NCI-H522 lung = test system: NCI-H522 lung
# SF-539 CNS = test system: SF-539 CNS
# KM12 colon = test system: KM12 colon
# OVCAR-5 ovarian = test system: OVCAR-5 ovarian
# SK-OV-3 ovarian = test system: SK-OV-3 ovarian
structure (smiles),measurement,setting,value
CN1CC(c2ccccc2)C(O)(C2(c3ccccc3)CN(C)CC(c3ccccc3)C2=O)C(c2ccccc2)C1 (stereo not drawn),TGI,SW-620 colon,> 100 µM
same,TGI,HT29 colon,> 100 µM
same,TGI,SNB-19 CNS,> 100 µM
same,TGI,NCI-H226 lung,> 100 µM
same,TGI,EKVX NSCLC,> 100 µM
same,TGI,NCI-H522 lung,> 100 µM
same,TGI,SF-539 CNS,> 100 µM
same,TGI,KM12 colon,> 100 µM
same,TGI,OVCAR-5 ovarian,> 100 µM
CC[C@@]1(OC(=O)CN(C)C)C(=O)OCc2c1cc1n(c2=O)Cc2cc3c(N)cccc3nc2-1,GI50,SW-620 colon,0.0181 µM
same,TGI,SW-620 colon,2.57 µM
same,GI50,HT29 colon,0.118 µM
same,TGI,HT29 colon,> 100 µM
same,GI50,SNB-19 CNS,0.0252 µM
same,TGI,SNB-19 CNS,> 100 µM
same,GI50,NCI-H226 lung,0.0233 µM
same,TGI,NCI-H226 lung,0.161 µM
same,GI50,SK-OV-3 ovarian,0.0402 µM
same,TGI,SK-OV-3 ovarian,0.884 µM
same,GI50,EKVX NSCLC,0.262 µM
same,TGI,EKVX NSCLC,3.58 µM
same,GI50,NCI-H522 lung,0.0744 µM
same,TGI,NCI-H522 lung,3.36 µM
same,GI50,KM12 colon,0.102 µM
same,TGI,KM12 colon,0.342 µM
same,GI50,OVCAR-5 ovarian,0.317 µM
same,TGI,OVCAR-5 ovarian,> 100 µM
O=C(O)C1OC1C(=O)O (stereo not drawn),TGI,SW-620 colon,> 100 µM
same,TGI,HT29 colon,> 100 µM
same,TGI,SNB-19 CNS,> 100 µM
same,TGI,NCI-H226 lung,> 100 µM
same,TGI,SK-OV-3 ovarian,> 100 µM
same,TGI,EKVX NSCLC,> 100 µM
same,TGI,NCI-H522 lung,> 100 µM
same,TGI,KM12 colon,> 100 µM
same,TGI,OVCAR-5 ovarian,> 100 µM
OC(c1ccc(Cl)cc1)(c1ccc(Cl)cc1)c1cncnc1,TGI,SW-620 colon,55.4 µM
same,TGI,HT29 colon,32.1 µM
same,TGI,SNB-19 CNS,48.8 µM
same,TGI,NCI-H226 lung,42.2 µM
same,TGI,KM12 colon,31.9 µM
same,TGI,OVCAR-5 ovarian,36.6 µM
O=S(=O)(O)c1cc(S(=O)(=O)O)c2cc(N=Nc3c(O)ccc4ccccc34)ccc2c1,TGI,SW-620 colon,> 100 µM
same,TGI,HT29 colon,> 100 µM
same,TGI,SNB-19 CNS,> 100 µM
same,TGI,NCI-H226 lung,> 100 µM
same,TGI,SK-OV-3 ovarian,> 100 µM
same,TGI,EKVX NSCLC,> 100 µM
same,TGI,NCI-H522 lung,> 100 µM
same,TGI,KM12 colon,> 100 µM
same,TGI,OVCAR-5 ovarian,> 100 µM
O=C(O)C(O)(c1ccc(-c2ccccc2)cc1)c1ccc(-c2ccccc2)cc1,TGI,SW-620 colon,> 100 µM
same,TGI,HT29 colon,> 100 µM
same,TGI,SNB-19 CNS,> 100 µM
same,TGI,NCI-H226 lung,62.6 µM
same,TGI,EKVX NSCLC,70.9 µM
same,TGI,NCI-H522 lung,47.5 µM
same,TGI,KM12 colon,40.9 µM
same,TGI,OVCAR-5 ovarian,77.8 µM
Clc1ccc(C2CC(c3cccc(Nc4ccncc4)c3)=NN2c2ccc(Cl)cc2)cc1 (stereo not drawn),GI50,SW-620 colon,1.8 µM
same,TGI,SW-620 colon,3.6 µM
same,GI50,NCI-H226 lung,12.4 µM
same,TGI,NCI-H226 lung,38.3 µM
same,GI50,SK-OV-3 ovarian,1.77 µM
same,TGI,SK-OV-3 ovarian,3.41 µM
same,GI50,EKVX NSCLC,1.58 µM
same,TGI,EKVX NSCLC,3.04 µM
same,GI50,SF-539 CNS,1.64 µM
same,TGI,SF-539 CNS,3.03 µM
same,GI50,OVCAR-5 ovarian,1.54 µM
same,TGI,OVCAR-5 ovarian,2.88 µM
COc1cc2c(cc1OC)C1c3ccccc3CCN1CCC2 (stereo not drawn),TGI,SW-620 colon,> 100 µM
same,TGI,HT29 colon,> 100 µM
same,TGI,SNB-19 CNS,> 100 µM
same,TGI,NCI-H226 lung,> 100 µM
same,TGI,SK-OV-3 ovarian,> 100 µM
same,TGI,EKVX NSCLC,> 100 µM
same,TGI,SF-539 CNS,> 100 µM
same,TGI,KM12 colon,> 100 µM
same,TGI,OVCAR-5 ovarian,> 100 µM
CCOC(=O)c1nc2ccccc2n(CC)c1=O,TGI,SW-620 colon,> 100 µM
same,TGI,HT29 colon,> 100 µM
same,TGI,SNB-19 CNS,> 100 µM
same,TGI,NCI-H226 lung,> 100 µM
same,TGI,SK-OV-3 ovarian,> 100 µM
same,TGI,EKVX NSCLC,> 100 µM
same,TGI,NCI-H522 lung,> 100 µM
same,TGI,SF-539 CNS,> 100 µM
same,TGI,KM12 colon,> 100 µM
same,TGI,OVCAR-5 ovarian,> 100 µM
COc1ccc(NC(=S)NNC(=O)c2nsc3ccccc23)cc1,TGI,SW-620 colon,> 100 µM
same,TGI,HT29 colon,> 100 µM
same,TGI,SNB-19 CNS,> 100 µM
same,TGI,EKVX NSCLC,> 100 µM
same,TGI,SF-539 CNS,75.8 µM
same,TGI,KM12 colon,> 100 µM
same,TGI,OVCAR-5 ovarian,> 100 µM
Nc1c(OCC(=O)O)ccc2cc(S(=O)(=O)O)ccc12,TGI,SW-620 colon,> 100 µM
same,TGI,SNB-19 CNS,> 100 µM
same,TGI,NCI-H226 lung,> 100 µM
same,TGI,SK-OV-3 ovarian,> 100 µM
same,TGI,NCI-H522 lung,> 100 µM
same,TGI,SF-539 CNS,> 100 µM
same,TGI,KM12 colon,> 100 µM
c1ccc2c(c1)OCCc1cn[nH]c1-2,TGI,SW-620 colon,> 100 µM
same,TGI,HT29 colon,> 100 µM
same,TGI,SNB-19 CNS,> 100 µM
same,TGI,NCI-H226 lung,95.5 µM
same,TGI,SK-OV-3 ovarian,> 100 µM
same,TGI,EKVX NSCLC,> 100 µM
same,TGI,NCI-H522 lung,> 100 µM
same,TGI,SF-539 CNS,> 100 µM
same,TGI,KM12 colon,> 100 µM
same,TGI,OVCAR-5 ovarian,> 100 µM
CO/N=C(/C)c1cccc(Nc2nc3ccc(Cl)cc3c3[nH]c4ccccc4c23)c1,TGI,SW-620 colon,21.8 µM
same,TGI,SNB-19 CNS,35.6 µM
same,TGI,NCI-H226 lung,27.9 µM
same,TGI,SK-OV-3 ovarian,49.6 µM
same,TGI,NCI-H522 lung,13.4 µM
same,TGI,SF-539 CNS,30.1 µM
same,TGI,KM12 colon,14.6 µM
same,TGI,OVCAR-5 ovarian,23.7 µM
O=NN1C(c2ccccc2)C2CCCC(C2=O)C1c1ccccc1 (stereo not drawn),TGI,SW-620 colon,> 100 µM
same,TGI,HT29 colon,40.1 µM
same,TGI,SNB-19 CNS,> 92.5 µM
same,TGI,NCI-H226 lung,71 µM
same,TGI,SK-OV-3 ovarian,73.6 µM
same,TGI,EKVX NSCLC,> 79.5 µM
same,TGI,NCI-H522 lung,46.4 µM
same,TGI,SF-539 CNS,> 100 µM
same,TGI,KM12 colon,99.2 µM
same,TGI,OVCAR-5 ovarian,> 100 µM
CCCCN(CCCC)CCC(O)c1cc(-c2ccc(C(F)(F)F)cc2)nc(-c2ccc(C(F)(F)F)cc2)c1 (stereo not drawn),TGI,SW-620 colon,> 100 µM
same,TGI,HT29 colon,> 100 µM
same,TGI,SNB-19 CNS,> 100 µM
same,TGI,EKVX NSCLC,> 100 µM
same,TGI,NCI-H522 lung,> 100 µM
same,TGI,SF-539 CNS,> 100 µM
same,TGI,OVCAR-5 ovarian,> 100 µM
O=C(Nn1c(-c2cccs2)nc2ccc(I)cc2c1=O)c1ccccc1,TGI,SW-620 colon,> 100 µM
same,TGI,HT29 colon,90.6 µM
same,TGI,SNB-19 CNS,64.5 µM
same,TGI,NCI-H226 lung,> 100 µM
same,TGI,EKVX NSCLC,70.5 µM
same,TGI,NCI-H522 lung,59.5 µM
same,GI50,SF-539 CNS,30.1 µM
same,TGI,SF-539 CNS,> 100 µM
same,TGI,KM12 colon,81.2 µM
same,TGI,OVCAR-5 ovarian,> 100 µM
CC1C2CCC3C(O)C2(CC(O)C2(O)C1CC(O)C2(C)C)CC3(C)O (stereo not drawn),TGI,SW-620 colon,> 100 µM
same,TGI,HT29 colon,> 100 µM
same,TGI,SNB-19 CNS,> 100 µM
same,TGI,NCI-H226 lung,> 100 µM
same,TGI,SK-OV-3 ovarian,> 100 µM
same,TGI,EKVX NSCLC,> 100 µM
same,TGI,NCI-H522 lung,> 100 µM
same,TGI,SF-539 CNS,> 100 µM
same,TGI,KM12 colon,> 100 µM
same,TGI,OVCAR-5 ovarian,> 100 µM
COc1ccc(C(=O)NC2=C(Cl)C(=O)c3ccccc3C2=O)cc1,TGI,SW-620 colon,3.45 µM
same,TGI,HT29 colon,19.4 µM
same,TGI,SNB-19 CNS,17.4 µM
same,TGI,NCI-H226 lung,9.32 µM
same,TGI,SK-OV-3 ovarian,9.85 µM
same,TGI,EKVX NSCLC,26.1 µM
same,TGI,NCI-H522 lung,1.49 µM
same,TGI,SF-539 CNS,11.6 µM
same,TGI,KM12 colon,12.2 µM
same,TGI,OVCAR-5 ovarian,11.4 µM
NC1C=NNC1=O (stereo not drawn),TGI,SW-620 colon,> 100 µM
same,TGI,HT29 colon,> 100 µM
same,TGI,SNB-19 CNS,> 100 µM
same,TGI,SK-OV-3 ovarian,> 100 µM
same,TGI,EKVX NSCLC,> 100 µM
same,TGI,NCI-H522 lung,> 100 µM
same,TGI,SF-539 CNS,> 100 µM
same,TGI,KM12 colon,> 100 µM
same,TGI,OVCAR-5 ovarian,> 100 µM
COC1CC(OC2CCC3(C)C(=CCC4C3C(OC(C)=O)C(OC(=O)CC(C)C)C3(C)C(C(C)=O)CCC43O)C2)OC(C)C1OC1CC(OC)C(OC2CC(OC)C(OC3OC(C)C(O)C(OC)C3O)C(C)O2)C(C)O1 (stereo not drawn),TGI,SW-620 colon,94.7 µM
same,TGI,HT29 colon,42.8 µM
same,TGI,SNB-19 CNS,> 100 µM
same,TGI,NCI-H226 lung,89.9 µM
same,TGI,SK-OV-3 ovarian,> 100 µM
same,TGI,EKVX NSCLC,> 100 µM
same,TGI,NCI-H522 lung,> 100 µM
same,TGI,SF-539 CNS,51.2 µM
same,TGI,KM12 colon,> 100 µM
same,TGI,OVCAR-5 ovarian,> 100 µM
C[C@]12Cc3cnc(-c4ccccc4)nc3C[C@@H]1CC[C@@H]1[C@@H]2CC[C@@]2(C)[C@H]1CC[C@]2(C)O,TGI,SW-620 colon,> 100 µM
same,TGI,HT29 colon,23.7 µM
same,TGI,SNB-19 CNS,44.3 µM
same,TGI,NCI-H226 lung,58.1 µM
same,TGI,SK-OV-3 ovarian,50 µM
same,TGI,EKVX NSCLC,> 87.1 µM
same,TGI,NCI-H522 lung,31.2 µM
same,TGI,SF-539 CNS,9.55 µM
same,TGI,KM12 colon,> 67.8 µM
same,TGI,OVCAR-5 ovarian,63.4 µM
CN(CCO)Cc1ncccc1O,TGI,SW-620 colon,> 100 µM
same,TGI,HT29 colon,> 100 µM
same,TGI,SNB-19 CNS,> 100 µM
same,TGI,NCI-H226 lung,> 100 µM
same,TGI,SK-OV-3 ovarian,> 100 µM
same,TGI,EKVX NSCLC,> 100 µM
same,TGI,NCI-H522 lung,> 100 µM
same,TGI,SF-539 CNS,> 100 µM
same,TGI,KM12 colon,> 100 µM
same,TGI,OVCAR-5 ovarian,> 100 µM
